According to US20090227572A1, “TREATMENT OF DIABETIC WOUNDS AND PERIPHERAL NEUROPATHIES” (Cytrx Corporation, priority 2007, published 2009):

Experiments:
[1] = test system: Homozygous, diabetic mice; test: Wound healing in homozygous diabetic mice, systemic or topical administration (Example 2); assay type: in vivo; conditions: topical administration, 4% w/v aqueous solution, FIG. 7
Experimental: Homozygous, diabetic mice described above, and wounded in the manner described above in Example 1, were treated by topical administration of iroxanadine or arimoclomol. A 4% w/v aqueous solution of arimoclomol were separately administered topically to the wounded position. […] dosage of iroxanadine was at 10 mg/kg IP, b.i.d., a relatively low concentration.

[2] = test system: BKS.Cg-m^+/+ Lepr^db/J homozygous mice; test: Wound healing in diabetic db/db mice, daily oral dosing (Example 1); assay type: in vivo
Excerpt: Seventy male BKS.Cg-m^+/+ Lepr^db/J homozygous mice were housed and handled for seven (7) days prior to commencement of the procedure for acclimation purposes. The mice weighed 26.1-41.2 g on Day 0, at the age of 8 weeks. As control, twenty male BKS.Cg-m^+/− Lepr^db/J heterozygous mice were handled similarly. These mice weighed 19.6-25.1 g on Day 0, at the age of 8 weeks. Mice were divided into Groups (1) to (9), each group consisting of 10 mice.
On Day 0, two full-thickness wounds were made on each mouse in Groups A-I (n=80). […]
Immediately following the generation of the skin wound, the original wound was traced by using a fine point maker to outline the perimeter of the wound onto transparency paper (the mouse was immobilized using isoflurane anesthesia for this procedure), and wound size was then traced every 3 days. […] Outlines were digitized, quantified and analyzed using computer imaging software as described below.
The mice began daily dosing as detailed in Table 1 on the day of wounding. The mice continued to receive daily treatment until wound closure as determined by the study director and the client. Blood glucose levels were measured by glucometer prior to the first scheduled dosing and weekly thereafter-using blood collected by tail nick. Body weights were measured weekly beginning prior to treatment. […]
Raw data was reviewed (read and understood) for accuracy. […]

[3] = mice, previously determined; cited from earlier work
[4] = rat, subchronic studies; cited from earlier work
[5] = Morbidity, mortality and body weights in the wound healing study (Example 1); assay type: in vivo, mice
Experimental: The mice began daily dosing as detailed in Table 1 on the day of wounding. The mice continued to receive daily treatment until wound closure as determined by the study director and the client. Blood glucose levels were measured by glucometer prior to the first scheduled dosing and weekly thereafter-using blood collected by tail nick. Body weights were measured weekly beginning prior to treatment. Clinical observations were conducted weekly.

Row | SMILES | wound healing over time [1] | wound closure rate ([2]; rate analysed for Days 0-8 (with ethanol) and Days 9-12 (no ethanol), FIG. 5E) | odds of closure of both wounds (hazard ratio, proportional hazard model) ([2]; relative to homozygous diabetic control Group (3), iroxanadine 10-200 mg/kg Groups (4)-(8), arimoclomol 200 mg/kg Group 9, QD PO, FIG. 4) | acute oral LD50 [3] [mg/kg] | no observed adverse effect level (NOAEL) [4] [mg/kg] | tolerability of the highest dose relative to maximum tolerated dose (MTD) ([5]; 200 mg/kg QD PO, administered with EtOH) | unplanned mice deaths outside of the study protocol ([5]; highest dose 200 mg/kg QD PO, Groups (2) and (8), formulation contained EtOH Days 0-8) | effect on body weight ([5]; mice, daily until wound closure, FIG. 1A-B)
1 | [O-][n+]1cccc(/C(Cl)=N/OC[C@H](O)CN2CCCCC2)c1 [arimoclomol, N-[2-hydroxy-3-(1-piperidinyl)propoxy]-pyridine-1-oxide-3-carboximidoyl chloride] | clearly showed an accelerated healing of wounds | statistically relevant increase in the wound closure rate | appeared to be effective in increasing the odds of wound closure | – | – | – | – | –
2 | c1cncc(C2=NOCC(CN3CCCCC3)N2)c1 (centres unmarked) [iroxanadine, 5,6-dihydro-5(1-piperidinyl)-methyl-3-(3-pyridyl)-4H-1,2,4-oxadiazine] | – | – | – | 3800 | 400 | may be above the maximum tolerated dose (MTD) and approaching LD50 | Eight of the nine deaths | No significant effect on body weight was observed except in diabetic animals treated with the highest dose
